The supplement of paper PMC12317010
Where a name gives a salt, the structure may show the parent alone.

Experiment: collision cross section in nitrogen (drift tube, single-field); higher = larger gas-phase ion size
[1] = ion type: [M+H], ion source: APCI, ion mode: Positive
[2] = ion type: [M+H], ion source: ESI, ion mode: Positive
[3] = ion type: [M+Na], ion source: ESI, ion mode: Positive
[4] = ion type: [M+], ion source: APCI, ion mode: Positive
[5] = ion type: [M-H], ion source: ESI, ion mode: Negative
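Also: chemical standards at 10 µM analysed by drift tube IMS-QTOF MS in about 3.95 torr nitrogen, mean of duplicate injections differing ≤1%, mass error below 10 ppm.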

For `CN1C(=O)N(c2ccccc2Br)Cc2cnc(Nc3ccc4c(c3)OCC(CO)O4)nc21` (stereo unspecified), the “collision cross section in nitrogen” value [1] was 219.5 Å², the “collision cross section in nitrogen” value [2] was 218.9 Å² and the “collision cross section in nitrogen” value [3] was 219.1 Å². For the same molecule, the “collision cross section in nitrogen” value [4] was 215.4 Å² and the “collision cross section in nitrogen” value [5] was 220.2 Å².
With `CN(C)C(=O)C1(N2CCCCC2)CCN(CC[C@@]2(c3ccc(Cl)c(Cl)c3)CN(C(=O)c3ccccc3)CCO2)CC1` the “collision cross section in nitrogen” value [1] was 244.9 Å², the “collision cross section in nitrogen” value [2] was 245.5 Å² and the “collision cross section in nitrogen” value [3] was 241.3 Å².
For `COc1cc(OC)nc(NC(=O)NS(=O)(=O)c2ncccc2OCC(F)(F)F)n1` [Trifloxysulfuron-sodium], the “collision cross section in nitrogen” value [2] was 192 Å², the “collision cross section in nitrogen” value [3] was 194.5 Å² and the “collision cross section in nitrogen” value [5] was 190.2 Å².
In the case of `COc1cc(C(C)(C)C)c(O)c(C(C)(C)C)c1` [2,6-Di-tert-butyl-4-methoxyphenol], the “collision cross section in nitrogen” value [4] is reported as 157.2 Å² and the “collision cross section in nitrogen” value [5] is reported as 160.4 Å².
In the case of `O=C(O)c1cccc(N(Cc2cccnc2)c2ccc(OC(F)F)c(OC(F)F)c2)c1`, the “collision cross section in nitrogen” value [1] is reported as 201.3 Å², the “collision cross section in nitrogen” value [2] is reported as 200.4 Å² and the “collision cross section in nitrogen” value [3] is reported as 205.9 Å². The “collision cross section in nitrogen” value [5] was 202.6 Å².
With `CCC1(c2ccccc2)C(=O)N=C(O)NC1=O` (stereo unspecified) [Phenobarbital sodium] the “collision cross section in nitrogen” value [5] was 150.4 Å².
For `O=C(O)CCN(C1(C(=O)NO)CCCC1)S(=O)(=O)c1ccc(Oc2ccc(F)cc2)cc1`, the “collision cross section in nitrogen” value [3] was 211 Å² and the “collision cross section in nitrogen” value [5] was 198.1 Å².
With `CCN(C(=O)c1cc(C)cc(OC[C@H](C)Nc2ccncc2)c1)C(C)C` the “collision cross section in nitrogen” value [1] was 186.4 Å², the “collision cross section in nitrogen” value [2] was 186.4 Å² and the “collision cross section in nitrogen” value [3] was 194.8 Å².
For `Nc1ccc([N+](=O)[O-])cc1Cl` [2-Chloro-4-nitroaniline], the “collision cross section in nitrogen” value [5] was 126.1 Å².
With `Nc1ccc(Oc2cccc(Oc3ccc(N)cc3)c2)cc1` [1,3-Phenylenedi(4-aminophenyl ether)] the “collision cross section in nitrogen” value [1] was 167.2 Å², the “collision cross section in nitrogen” value [2] was 168.2 Å² and the “collision cross section in nitrogen” value [4] was 177.7 Å².
In the case of `NC(=O)Cn1c(=O)cc(CCN2CCN(c3nccc4sccc34)CC2)c2ccc(F)cc21` [Trelanserin], the “collision cross section in nitrogen” value [1] is reported as 200.1 Å², the “collision cross section in nitrogen” value [2] is reported as 202.8 Å² and the “collision cross section in nitrogen” value [3] is reported as 207.9 Å². For the same molecule, the “collision cross section in nitrogen” value [5] was 203.8 Å².
In the case of `CCCCCCCCCCCCCCCC(=O)OC` [Methyl hexadecanoate], the “collision cross section in nitrogen” value [5] is reported as 173.6 Å².
In the case of `CCCCC(CC)COC(=O)c1ccc(O)cc1` (stereo unspecified) [2-Ethylhexyl p-hydroxybenzoate], the “collision cross section in nitrogen” value [5] is reported as 169.9 Å².
In the case of `COc1ccccc1Oc1c(NS(=O)(=O)c2ccc(C(C)(C)C)cc2)nc(-c2ncccn2)nc1OCCO` [Bosentan hydrate], the “collision cross section in nitrogen” value [1] is reported as 229.9 Å², the “collision cross section in nitrogen” value [2] is reported as 229.4 Å² and the “collision cross section in nitrogen” value [3] is reported as 234.4 Å². For the same molecule, the “collision cross section in nitrogen” value [5] was 232.9 Å².
For `O=C(OCC1CCC2OC2C1)C1CCC2OC2C1` (stereo unspecified) [ECC], the “collision cross section in nitrogen” value [3] was 158 Å².
In the case of `O=[N+]([O-])O` [Nitric acid, calcium salt (2:1)], the “collision cross section in nitrogen” value [5] is reported as 104.5 Å².
In the case of `O=C(NC(=O)c1ccccc1Cl)Nc1ccc(OC(F)(F)F)cc1` [Triflumuron], the “collision cross section in nitrogen” value [3] is reported as 186.6 Å² and the “collision cross section in nitrogen” value [5] is reported as 179.1 Å².
With `COC(=O)Nc1nc2cc(Sc3ccccc3)ccc2[nH]1` [Fenbendazole] the “collision cross section in nitrogen” value [1] was 175 Å², the “collision cross section in nitrogen” value [2] was 174.6 Å² and the “collision cross section in nitrogen” value [5] was 174.9 Å².
For `Nc1ccc(O)c(C(=O)O)c1` [5-Aminosalicylic acid], the “collision cross section in nitrogen” value [5] was 127.8 Å².
With `COP(=O)(O)OC` [Dimethyl phosphate] the “collision cross section in nitrogen” value [5] was 120.6 Å².
With `CCCOc1nn(C(=O)NS(=O)(=O)c2ccccc2C(=O)OC)c(=O)n1C` [Propoxycarbazone-sodium] the “collision cross section in nitrogen” value [5] was 193.2 Å².
With `CN[C@H]1CC[C@@H](c2ccc(Cl)c(Cl)c2)c2ccc(S(N)(=O)=O)cc21` the “collision cross section in nitrogen” value [5] was 197.2 Å².
In the case of `Cc1ccccc1CO[C@@H]1C[C@@]2(C(C)C)CC[C@]1(C)O2` [Cinmethylin], the “collision cross section in nitrogen” value [3] is reported as 169.7 Å².
In the case of `O=C(O)c1cccc(C(=O)O)c1` [1,3-Benzenedicarboxylic acid], the “collision cross section in nitrogen” value [5] is reported as 133.2 Å².
With `O=C(CC(=O)c1ccccc1)c1ccccc1` [1,3-Diphenyl-1,3-propanedione] the “collision cross section in nitrogen” value [3] was 165.9 Å² and the “collision cross section in nitrogen” value [5] was 154.4 Å².
For `CCCOC(=O)NCCCN(C)C` [Propamocarb hydrochloride], the “collision cross section in nitrogen” value [1] was 142.7 Å² and the “collision cross section in nitrogen” value [2] was 143.4 Å².
In the case of `O=C(NC(=O)c1c(F)cccc1F)Nc1cc(Cl)c(F)c(Cl)c1F` [Teflubenzuron], the “collision cross section in nitrogen” value [5] is reported as 178.7 Å².
In the case of `CC(C)c1ccc2c(c1)CC[C@H]1[C@](C)(CN)CCC[C@]21C` [Dehydroabietylamine], the “collision cross section in nitrogen” value [2] is reported as 188.3 Å².
In the case of `COc1cc(OC)nc(NC(=O)NS(=O)(=O)c2ncccc2C(=O)N(C)C)n1` [Nicosulfuron], the “collision cross section in nitrogen” value [3] is reported as 196.2 Å².
With `NCc1cccnc1` [3-(Aminomethyl)pyridine] the “collision cross section in nitrogen” value [1] was 118.5 Å² and the “collision cross section in nitrogen” value [2] was 119.6 Å².
In the case of `Oc1ccc(-c2ccccc2)cc1` [4-Phenylphenol], the “collision cross section in nitrogen” value [5] is reported as 139.3 Å².
In the case of `CN1C(=O)c2ccccc2C1=O` [N-Methylphthalimide], the “collision cross section in nitrogen” value [1] is reported as 129 Å².
For `N[C@@H](Cc1ccc(O)c(O)c1)C(=O)O` [Levodopa], the “collision cross section in nitrogen” value [5] was 141.6 Å².
For `CCC(C)n1c(=O)[nH]c(C)c(Br)c1=O` (stereo unspecified) [Bromacil], the “collision cross section in nitrogen” value [5] was 146.6 Å².
In the case of `CN(C)c1ccc(C=O)cc1` [4-Dimethylaminobenzaldehyde], the “collision cross section in nitrogen” value [1] is reported as 129.3 Å² and the “collision cross section in nitrogen” value [2] is reported as 129 Å².
In the case of `CCCOC(=O)c1ccccc1C(=O)OCCC` [Di-n-propylphthalate], the “collision cross section in nitrogen” value [3] is reported as 171.5 Å².
For `CCCCNS(=O)(=O)c1ccc(C)cc1` [N-Butyl-p-toluenesulfonamide], the “collision cross section in nitrogen” value [3] was 169.3 Å² and the “collision cross section in nitrogen” value [5] was 155 Å².
For `CCCCCCCCCCCCOC(C)=O` [Dodecyl acetate], the “collision cross section in nitrogen” value [5] was 162 Å².
In the case of `Cc1cccc(Nc2cc(Cl)nc(SCC(=O)O)n2)c1C` [[4-Chloro-6-(2,3-xylidino)-2-pyrimidinylthio]acetic acid], the “collision cross section in nitrogen” value [1] is reported as 175.6 Å², the “collision cross section in nitrogen” value [2] is reported as 175.5 Å² and the “collision cross section in nitrogen” value [3] is reported as 178.2 Å². The “collision cross section in nitrogen” value [5] was 171 Å².
With `CCCCOC(=O)c1ccccc1C(=O)OCc1ccccc1` [Benzyl butyl phthalate] the “collision cross section in nitrogen” value [3] was 178.3 Å².
For `CC(C)COC(=O)c1ccccc1C(=O)OCC(C)C` [Diisobutyl phthalate], the “collision cross section in nitrogen” value [3] was 181.8 Å².
In the case of `Cc1cc(NC(=O)C(=O)O)cc(C)c1Oc1ccc(O)c2c1CCC2`, the “collision cross section in nitrogen” value [5] is reported as 199.1 Å².
For `Nc1c(Cl)cc([N+](=O)[O-])cc1Cl` [Dichloran], the “collision cross section in nitrogen” value [5] was 131 Å².
With `O=C(c1ccc(OCCN2CCCCC2)cc1)c1c(-c2ccc(O)cc2)sc2cc(O)ccc12` [Raloxifene hydrochloride] the “collision cross section in nitrogen” value [1] was 215.7 Å², the “collision cross section in nitrogen” value [2] was 215.2 Å² and the “collision cross section in nitrogen” value [3] was 220.7 Å². For the same molecule, the “collision cross section in nitrogen” value [5] was 213.4 Å².
